In PMC8840081, “Phenylalanine-Based AMPA Receptor Antagonist as the Anticonvulsant Agent with Neuroprotective Activity—In Vitro and In Vivo Studies” (Molecules, 2022):

How the values were obtained:
[1] = system: IMR-32 neuroblastoma cells; experiment: neuroprotection against 6-OHDA-induced LDH release; type: cell-based, human; conditions: IMR-32, compound 50 µM, 1 h pretreatment, 200 µM 6-OHDA, 24 h
Experimental: (§1) All cell culture protocols and assay conditions were applied as we reported previously. SH-SY5Y (ATCC® CRL-2266™) cell line was purchased from ATCC (Manassas, VA, USA). IMR-32 (ATCC® CCL-127™) cell line was kindly provided by the Department of Oncogenomics, Academisch Medisch Centrum, Amsterdam, Holland. Before each test SH-SY5Y or IMR-32 cells were seeded in 96-well plates with transparent bottom at a concentration of 2.5 × 10^4 cells/well in 100 μL of respective cell culture medium and cultured for 24 h to reach 70% confluence. • Cell Viability
(§2) CytoTox-ONE™ Homogeneous Membrane Integrity Assay, which based on the LDH release, was purchased from Promega (Madison, WI, USA). SH-SY5Y or IMR-32 cells were seeded in 96-well white plates with transparent bottom. For neuroprotective studies, the cells were preincubated first for 1 h with compound 1, 8 or reference antioxidants AA, TX (all at the concentration of 50 μM) and next the neurotoxin 6-OHDA (Sigma-Aldrich, Inc., St. Louis, MO, USA) was added at final concentration of 50 μM (SH-SY5Y assay) or 200 µM (IMR-32 assay). After 24 h of incubation, the CytoTox-ONE™ was added to each well and the cells were incubated next for 10 min at room temperature. The fluorescence was measured using a microplate reader EnSpire (PerkinElmer, Waltham, MA, USA) with an excitation wavelength of 560 nm and an emission wavelength of 590 nm. All measurements were performed in triplicate and results are shown as mean ± SD. The similar studies were also performed with SH-SY5Y cells injured by 100 μM of 6-OHDA (Figure S1, Supporting Materials). • ROS Assay

[2] = system: SH-SY5Y neuroblastoma cells; experiment: neuroprotection against 6-OHDA-induced LDH release; type: cell-based, human; conditions: compound 50 µM
Experimental: as §1, §2

[3] = system: native AMPA receptors; conditions: cited from earlier work; for Ki / IC50: native AMPA receptors, rat brain membranes, mean of three experiments; for Ki: read-out: [3H]AMPA Ki; for IC50: read-out: [3H]AMPA IC50 (footnote 4: IC50 values)
[4] = ferric reducing antioxidant power (FRAP) assay; conditions: % of ascorbic acid activity; compounds and AA at 1 mM
Experimental: The total antioxidant potential of aryl-substituted phenylalanine derivatives was determined using FRAP assay. The FRAP reagent was prepared first by mixing acetate buffer (300 mM, pH 3.6), a solution of 10 mM TPTZ (2,4,6-tripyridyl-s-triazine, Sigma-Aldrich, Inc., St. Louis, MO, USA) in 40 mM HCl and 20 mM of iron (III) chloride hexahydrate (FeCl3 × 6H2O, Chempur, Piekary Śląskie, Poland) at 10:1:1 (v/v/v). The FRAP reagent (190 μL) and 1 mM of tested compound (10 μL) was added next to each well, mixed and incubated for 30 min. The absorbance was measured using a microplate reader EnSpire (PerkinElmer, Waltham, MA USA) at 593 nm. AA (1 mM, AMARA, Kraków, Poland) was used as the reference antioxidant. The results were expressed as % of ascorbic acid activity (%AAA). Analyses were performed in triplicate. • ORAC-FL

[5] = oxygen radical absorbance capacity fluorescent (ORAC-FL) assay; conditions: Trolox equivalent, calculated at 5 µM of compounds and Trolox
Experimental: The ORAC-FL was performed according to procedure described in the literature. The reagents used in this assay, TX, fluorescein and 2,2′-azobis(2-amidinopropane) dihydrochloride (AAPH), were purchased from Sigma-Aldrich, Inc., St. Louis, MO, USA. The prepared ORAC-FL reagent consisted of 0.3 μM of fluorescein and 100 µM of AAPH dissolved in PBS buffer. The compounds and the reference antioxidant TX were tested at the concentration 2.5 µM and the results were compared to the blank in which no antioxidant was present. The assays were performed in black 96-well plates. The fluorescence readings were taken by a microplate reader EnSpire (PerkinElmer, Waltham, MA, USA) every minute for a duration of 240 min. The excitation wavelength was 485 nm and the emission wavelength was 520 nm. The area under the fluorescence decay curve (AUC) was calculated next by GraphPad Prism™ software (version 5.01, San Diego, CA, USA). All measurements were performed in triplicate. The TX equivalent (TE) was calculated next using the following Equation (1):TE = [(AUCsample − AUCblank)/(AUCTX − AUCblank)] × [CTX/Csample](1)

[6] = 1 h pretreatment, 50 µM 6-OHDA, 24 h

Row | SMILES | 6-OHDA-induced release of LDH (neuroprotection) [1] | 6-OHDA-induced release of LDH (neuroprotection) ([2]; 100 µM 6-OHDA) | 6-OHDA-induced release of LDH (neuroprotection) [2, 6] | selectivity over NMDA and KA receptors [3] | Ki [3] | FRAP (%AAA) [4] | ORAC (TE) [5] | IC50 [3]
1 | O=C1O[C@H]([C@@H](O)CO)C(O)=C1O [AA, ascorbic acid, reference compound] | no statistically significant neuroprotective effect | neuroprotective effect was not observed | no statistically significant neuroprotective effect | – | – | – | – | –
2 | NC(Cc1cc(-c2cncc(O)c2)c(Cl)c([N+](=O)[O-])c1)C(=O)O (centres unmarked) [Compound 2] | – | – | – | high selectivity | 2 µM | 691.21 %AAA | 3.15 TE | –
3 | NC(Cc1cc(Cl)c(O)c(-c2cccc(O)c2)c1)C(=O)O (centres unmarked) [Compound 3] | – | – | – | – | 7.9 µM | 311.56 %AAA | 4.61 TE | –
4 | NC(Cc1cc(Cl)c(Cl)c(-c2ccc(O)c(O)c2)c1)C(=O)O (centres unmarked) [Compound 4] | – | – | – | – | – | 177.23 %AAA | 4.02 TE | 12 µM
5 | NC(Cc1cc(-c2ccc(O)cc2)cc([N+](=O)[O-])c1)C(=O)O (centres unmarked) [Compound 5] | – | – | – | – | 21 µM | 96.32 %AAA | 4.32 TE | –
6 | Nc1ccc(CC(N)C(=O)O)cc1-c1cccc(O)c1 (centres unmarked) [Compound 6] | – | – | – | – | 9.1 µM | 67.35 %AAA | 6.09 TE | –
7 | NC(Cc1cc(Cl)cc(-c2ccc(O)cc2)c1)C(=O)O (centres unmarked) [Compound 7] | – | – | – | – | 46 µM | 49.39 %AAA | 3.29 TE | –
8 | NC(Cc1cc(-c2cccc(O)c2)cc([N+](=O)[O-])c1)C(=O)O (centres unmarked) [Compound 9] | – | – | – | – | 8.2 µM | 43.43 %AAA | 4.67 TE | –
9 | NC(Cc1ccc([N+](=O)[O-])c(-c2cccc(O)c2)c1)C(=O)O (centres unmarked) [Compound 10] | – | – | – | – | 21 µM | 32.04 %AAA | 1.43 TE | –
10 | NC(Cc1cc(Cl)c(Cl)c(-c2cc(O)cc(O)c2)c1)C(=O)O (centres unmarked) [Compound 11] | – | – | – | – | – | 28.90 %AAA | 4.18 TE | 16 µM
11 | Nc1c(-c2cccc(O)c2)cc(CC(N)C(=O)O)cc1[N+](=O)[O-] (centres unmarked) [Compound 12] | – | – | – | – | 14 µM | 24.93 %AAA | 4.27 TE | –
12 | NC(Cc1ccc(Cl)c(-c2cccc(O)c2)c1)C(=O)O (centres unmarked) [Compound 13] | – | – | – | – | 9.2 µM | 24.08 %AAA | 2.86 TE | –
13 | Nc1c(Cl)cc(CC(N)C(=O)O)cc1-c1cccc(O)c1 (centres unmarked) [Compound 14] | – | – | – | – | 10 µM | 23.80 %AAA | 4.75 TE | –
14 | NC(Cc1cc(Cl)c(Cl)c(-c2ccc(O)cc2)c1)C(=O)O (centres unmarked) [Compound 15] | – | – | – | – | – | 13.70 %AAA | 1.45 TE | 33 µM
15 | NC(Cc1cc(Cl)c(Cl)c(-c2ccccc2O)c1)C(=O)O (centres unmarked) [Compound 16] | – | – | – | – | – | 10.32 %AAA | 1.54 TE | 85 µM
16 | NC(Cc1ccc(Cl)c(-c2ccc(O)cc2)c1)C(=O)O (centres unmarked) [Compound 17] | – | – | – | – | 65 µM | 9.13 %AAA | 1.96 TE | –
17 | NC(Cc1cc(-c2cccc(O)c2)c(Cl)c([N+](=O)[O-])c1)C(=O)O (centres unmarked) [Compound 18] | – | – | – | high selectivity | 3.1 µM | 6.29 %AAA | 1.34 TE | –
18 | NC(Cc1cccc(-c2cccc(O)c2)c1)C(=O)O (centres unmarked) [Compound 19] | – | – | – | – | – | 4.94 %AAA | 1.96 TE | 9.9 µM
19 | NC(Cc1ccc([N+](=O)[O-])c(-c2ccc(O)cc2)c1)C(=O)O (centres unmarked) [Compound 20] | – | – | – | – | 64 µM | 4.41 %AAA | 1.62 TE | –
20 | NC(Cc1cc(-c2ccc(O)cc2)c(Cl)c([N+](=O)[O-])c1)C(=O)O (centres unmarked) [Compound 21] | – | – | – | – | 23 µM | 2.76 %AAA | 2.56 TE | –
21 | COc1c(Cl)cc(CC(N)C(=O)O)cc1-c1cccc(O)c1 (centres unmarked) [Compound 22] | – | – | – | – | > 100 µM | 2.76 %AAA | 1.38 TE | –
22 | Cc1c(C)c2c(c(C)c1O)CCC(C)(C(=O)O)O2 (centres unmarked) [TX, Trolox, reference compound] | no statistically significant neuroprotective effect | neuroprotective effect was not observed | no statistically significant neuroprotective effect | – | – | – | – | –
